From patent US20030066100A1, “Capacitative calcium entry mechanism in porcine oocytes” (priority 2001, published 2003)
Entries after “also recorded” stand apart in the source; their conditions may differ.

Legend:
Assay type in all cases: cell-based
porcine oocytes [1] = assay: Divalent cation influx after InsP3 injection, Mn2+-quench technique
Protocol: (§1) The oocytes were loaded with the Ca^2+ indicator dye fura-2 by being incubated in the presence of 2 μM acetoxymethyl ester form of the dye and 0.02% pluronic F-127 (both from Molecular Probes, Inc., Eugene, Oreg.) for 40-50 minutes. After incubation the oocytes were rinsed, exposed to various treatments and the changes in the intracellular free Ca^2+ concentration ([Ca^2+]i) were followed using a Photoscan-2 photon counting fluorescent microscope system (Nikon Corp., Tokyo, Japan) as described by Macháty et al., Biol Reprod 1997a; 56:921-930. Fluorescence was recorded by calculating the ratio of fura-2 fluorescence at 510 mn excited by UV light alternatively at 340 and 380 nm. Intracellular free Ca^2+ levels are presented as fluorescent ratio values with ratios of 1.2 and 6.5 representing 65 and 602 nM Ca^2+, respectively.
To induce the release of Ca^2+ from the intracellular stores, the second messenger InsP3 was injected into the oocytes' cytoplasm using a microinjector (Narishige Co. Ltd., Tokyo, Japan). InsP3 was dissolved in carrier medium consisting of 10 mM Hepes and 100 μM EGTA buffered at pH 7.0. The amount injected was about 40 pl, which is 4% of the total cytoplasmic volume of ˜1000 pl. Microinjection was performed in HEPES-TL-PVA on a heated stage of a Nikon Diaphot inverted microscope (Nikon Corp., Tokyo, Japan).
The onset of a divalent cation influx after a Ca^2+ transient was investigated by using the manganese (Mn^2+)-quench technique disclosed by Hallam et al., Biochem. J. 1988; 255:179-184. Release of Ca^2+ from the intracellular stores was stimulated by intracellular injection of approximately 40 pl of 2.5 μM InsP3, the InsP3 receptor agonist. As a Ca^2+ surrogate, Mn^2+ was added to the external medium. Mn^2+ was reported to be able to translocate across the plasma membrane, bind fura-2 and quench its fluorescence. This technique enables measurement of divalent cation influx even when Ca^2+ release from the internal stores is coincident. The entry of Mn^2+ into the cell was monitored by imaging the resulting quench in fura-2 fluorescence at 510 nm excited alternatively at 340 and 360 nm. While the signal resulting from the 340 nm excitation is [Ca^2+]i sensitive, at 360 nm fura-2 fluorescence is independent of [Ca^2+]i and any decrease in fluorescence is due only to Mn^2+ entry.

porcine oocytes [2] = assay: Ca2+ release by thapsigargin in Ca2+-free medium (fura-2 fluorescence)
Protocol: as §1
A Ca^2+ influx was generated in porcine oocytes by the depletion of the intracellular Ca^2+ stores. […] It is routinely used to drain the intracellular stores of their Ca^2+ content. Fura-2-loaded oocytes were incubated in Ca^2+-free HEPES-TL-PVA medium in the presence of 10-50 μM thapsigargin for 3 hours to deplete intracellular Ca^2+ stores. After washing in Ca^2+-free medium (to remove thapsigargin and ensure that the intracellular stores remain empty), normal Ca^2+-containing medium was added to the oocytes and the changes in the [Ca^2+]i were measured. […]

porcine oocytes [3] = assay: Capacitative Ca2+ entry after store depletion and re-addition of Ca2+ (fura-2 fluorescence)
Protocol: as §1
A Ca^2+ influx was generated in porcine oocytes by the depletion of the intracellular Ca^2+ stores. […] It is routinely used to drain the intracellular stores of their Ca^2+ content. Fura-2-loaded oocytes were incubated in Ca^2+-free HEPES-TL-PVA medium in the presence of 10-50 μM thapsigargin for 3 hours to deplete intracellular Ca^2+ stores. After washing in Ca^2+-free medium (to remove thapsigargin and ensure that the intracellular stores remain empty), normal Ca^2+-containing medium was added to the oocytes and the changes in the [Ca^2+]i were measured. Oocytes incubated in Ca^2+-free HEPES-TL-PVA for 3 hours without thapsigargin were used to show the Ca^2+ entry under normal conditions, when the intracellular Ca^2+ stores were full.

porcine oocytes [4] = assay: Capacitative Ca2+ entry in oocytes expressing Drosophila trp; settings: 1 mM La3+
From the text: The plasmid vector pBluescript KS, containing the Drosophila trp cDNA ctrp-9 downstream of the T7 promoter (a generous gift from C. Montell) was transfected into Escherichia coli DH5α cells. Plasmid DNA was isolated and linearized with the restriction endonuclease KpnI (Promega Corp., Madison, Wis.) and mRNA was transcribed from the cDNA with T7 polymerase using the RiboMAX™ Large Scale RNA Production System (Promega), following the manufacturer's recommendations. In order to produce capped RNA transcripts, the reaction was performed in the presence of 3 mM m^7G(5′)ppp(5′)G (Boehringer-Mannheim Corp., Indianapolis, Ind.). Purified RNA was precipitated with 0.3 M sodium acetate and ethanol. The pellet was resuspended in diethylpyrocarbonate (DEPC)-treated water containing RNasin (1 IU/μl; from Promega) to a final concentration of approximately 800 ng/μl and the samples were stored in 3 μl aliquots at −70° C.
The Drosophila trp protein was expressed in porcine oocytes by injecting approximately 32 pg mRNA made by in vitro transcription of the cDNA and allowing 15 hours for translation. Control oocytes were injected with the carrier medium (DEPC-treated water). […] The baseline fluorescence of the oocytes was then recorded in Ca^2+-free HEPES-TL-PVA, and changes in [Ca^2+]i were measured for 20-30 minutes after the addition of Ca^2+-containing medium.

[5] = 1 mM La3+, InsP3 microinjected, Mn2+ added

With `O=P(O)(O)O[C@@H]1[C@H](O)[C@H](O)[C@@H](OP(=O)(O)O)[C@H](OP(=O)(O)O)[C@H]1O` [InsP3, inositol 1,4,5-trisphosphate] as the compound, how does the “oocytes with rapid decline in fluorescence well below the basal value (Mn2+ entry)” value (porcine oocytes [1]; InsP3 microinjected, 3 mM Mn2+ in the external medium) read?
Its value is 14/14.

And the “oocytes with transient elevation in fluorescence at 340 nm excitation (increase in [Ca2+]i)” value (porcine oocytes [1]; injection of about 40 pl of 2.5 μM InsP3)?
Its value is 16 out of 16.

What does the source list for `C/C=C(/C)C(=O)O[C@H]1C(C)=C2[C@H]([C@@H]1OC(=O)CCCCCCC)[C@@](C)(OC(C)=O)C[C@H](OC(=O)CCC)[C@@]1(O)[C@H]2OC(=O)[C@@]1(C)O` [thapsigargin]?
change in [Ca2+]i (porcine oocytes [2]; 10-50 μM thapsigargin in Ca2+-free medium): induced an increase in [Ca^2+]i; increase in [Ca2+]i relative to 50 μM (porcine oocytes [2]; 10 and 20 μM thapsigargin, Ca2+-free medium): slightly smaller increases in [Ca^2+]i; start of the increase in [Ca2+]i after adding the HEPES-TL-PVA medium (porcine oocytes [3]; after thapsigargin store depletion): 0 to 300 s; oocytes showing Ca2+ entry (rise in [Ca2+]i) after re-addition of Ca2+ (porcine oocytes [3]; stores emptied with thapsigargin for 3 hours in Ca2+-free medium): 15 out of 18

Which “block of cation influx and decline in fluorescence at both wavelengths” value (porcine oocytes [1]; [5]) does the source give for `[La+3]` [La^3+, lanthanum] here?
The value was “totally blocked”.

What about the “oocytes in which fluorescence intensities stayed near the resting values” (porcine oocytes [1]; [5]) of the same compound?
Its value is 7/7.

And the “block of thapsigargin-evoked Ca2+ entry” value (porcine oocytes [3]; 1 mM La3+)?
Its value is “totally inhibited; also recorded: completely blocked”.

What about the “oocytes in which thapsigargin-evoked Ca2+ entry was blocked” value (porcine oocytes [3]; 1 mM La3+) of the same compound?
Its value is 11/11.

And the “block of Ca2+ entry-evoked [Ca2+]i increase” value (porcine oocytes [4])?
Its value is “completely blocked”.
